Here are results for 6 molecules from PubChem BioAssay AID2060509 (Molecular Pharmacology Branch, DTP, NCI, 2025).

Several values for one entry are separate records, joined by “and”; a condition that tells them apart may be missing. Equal values may be shown once.

This assay has as its system 485176-168-R4-J1-PDC spheroids with HUVEC/MSC, viability. Put plainly: Anticancer human tumor 485176-168-R4-J1-PDC patient-derived pancreatic adenocarcinoma cell line growth inhibition [GQUAD]. As to conditions: for viability, T/C: stronger effect = lower value. From the text:
DNA G-quadruplex Stabilizer Agents in Combinations in Complex Spheroids
A high-throughput screen of multi-cell type tumor spheroids was designed to identify active combinations of DNA G-quadruplex stabilizer agents and targeted small molecules. Complex spheroids include a stromal component modeled by human endothelial cells (HUVEC) and fibroblasts modeled by human mesenchymal stem cells (MSCs). The concentration ranges selected for each drug and investigational agent were based upon clinically achievable concentrations if the clinical Cmax of the agent was known.
Compounds. The drugs and investigational agents: pidnarulex (CX-5461; NSC782164), APTO-253 (NSC789042), BRACO-19 (NSC847499), peposertib (NSC802822), ceralasertib (NSC780249), elimusertib (NSC800525), camonsertib (NSC841442), AZD-1390 (NSC803789), olaparib (NSC753686), talazoparib (NSC767125), ART-558 (NSC835418), sotorasib (NSC818433), MRTX-1133 (NSC836407), SN-38 (NSC673596), topotecan (NSC609699), etoposide (NSC141540), doxorubicin (NSC123127), gemcitabine (NSC613327), 5-fluorouracil (NSC19893), paclitaxel (NSC125973), vemurafenib (NSC761431), panobinostat (NSC761190), R-306465 (JNJ-16241199; NSC773264), adavosertib (NSC754352), TP-3654 (NSC805149), carboplatin (NSC241240), KSQ-4279 (NSC840948), and staurosporine (NSC755774) were obtained from the National Cancer Institute (NCI) Developmental Therapeutics Program Chemical Repository (34). The FDA-approved anticancer drug set is available from the NCI Developmental Therapeutics Program. […] The stock solutions were prepared in dimethyl sulfoxide (DMSO, Sigma-Aldrich, St. Louis, MO, cat. D2650) at 800-fold the tested concentration and stored at -70 degrees C prior to their use. All drugs and investigational agents were tested over a range starting from a high concentration at or near the clinical Cmax and decreasing in half-log increments. If the clinical Cmax for an agent had not been determined, the highest concentration tested was 10 microM.
2.3 Cell Culture. All cells were maintained in an incubator at 37 degrees C and 5% CO2 with 95% humidity. The PDC lines were cultured according to standard operating procedures established by the NCI PDMR. All PDCs were thawed and cultured in Matrigel-coated flasks prepared with a working solution of 1X Ham's F-12 nutrient mix, without supplementation (Invitrogen, cat. 11765054), 100 U/mL penicillin-streptomycin (Invitrogen, cat. 15140122), and 2.5% Matrigel (Corning Inc., cat. 354248) for the first three passages. The 857933-349-R-J2-PDC line was cultured in 6C/Colon 1B media, which includes advanced DMEM/F-12 (Thermo Fisher Scientific, cat. 12634028), 10 mM HEPES (Thermo Fisher Scientific, cat. 15630080), 1X GlutaMAX supplement (Thermo Fisher Scientific, cat. 35050061), 0.1 mg/mL primocin (InvivoGen, cat. ant-pm-2), 10% defined fetal bovine serum, heat inactivated (HyClone Laboratories Inc., cat. SH30070.03HI), 50% L-WRN conditioned media (ATCC, cat. CRL-3276), 1.25 mM N-Acetyl-L-cysteine (Sigma-Aldrich, cat. A9165), 10 mM nicotinamide (Sigma-Aldrich, cat. N0636), 1X B-27 supplement (Thermo Fisher Scientific, cat. 17504044), 1X N-2 supplement (Thermo Fisher Scientific, cat. 17502048), 10 microM Y-27632 dihydrochloride (Tocris Bioscience, cat. 1254), and 50 ng/mL human EGF recombinant protein (Thermo Fisher Scientific, cat. PHG0311). The 485176-168-R4-J1-PDC line was cultured in Panc media, which includes all 6C/Colon 1B media components plus 100 ng/mL human FGF-10 (Thermo Fisher Scientific, cat. 100-26), 500 nM SB-431542 (Selleckchem, cat. S1067), and gastrin (Tocris, cat. 3006).
[…]
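Further: spheroids exposed to compounds for seven days before readout.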
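Wherever viability, T/C is given: percent viability relative to DMSO vehicle control wells as 100%.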

On to `Cc1cccc(N(C)C(=O)C2C(O)CCN2c2nc(C)cc(C(F)(F)F)c2C#N)c1` (configuration not stated), for which the viability, T/C by setting is: (compound 0.0316 µM) 103% and 99% and 105%; (compound 0.1 µM) 85.8% and 79.2% and 87.1%; (compound 0.316 µM) 84.3% and 101% and 97.6%; (compound 1 µM) 85.8% and 105% and 76.4%; (compound 3.16 µM) 97.7% and 103% and 97.5%; (compound 10 µM) 95.4% and 91.5% and 89.9%. For the same molecule, the IC50 (curve of compound) was greater than 10 µM.
As for `C=CC(=O)N1CCN(c2nc(=O)n(-c3c(C)ccnc3C(C)C)c3nc(-c4c(O)cccc4F)c(F)cc23)C(C)C1` (configuration not stated), the viability, T/C was 94.5% and 108% and 99.3% (compound 0.0316 µM); 80.1% and 83.2% and 93.6% (compound 0.1 µM); 115% and 110% and 111% (compound 0.316 µM); 91.1% and 122% and 103% (compound 1 µM); 113% and 109% and 111% (compound 3.16 µM); 96.8% and 114% and 107% (compound 10 µM). For the same molecule, the IC50 (curve of compound) was greater than 10 µM.
Consider `COc1cc(C2c3cc4c(cc3C(OC3OC5COC(C)OC5C(O)C3O)C3COC(=O)C23)OCO4)cc(OC)c1O` (configuration not stated), for which the viability, T/C is, setting by setting: (compound 0.0316 µM) 102% and 101% and 95%; (compound 0.1 µM) 80.2% and 68.8% and 67.7%; (compound 0.316 µM) 46.6% and 39.1% and 39.6%; (compound 1 µM) 39.9% and 38.8% and 40.8%; (compound 3.16 µM) 25.9% and 24.6% and 23.1%; (compound 10 µM) 13.2% and 13.4% and 11%. The half-inhibitory concentration (IC50) (curve of compound) is 0.406 µM and 0.255 µM and 0.269 µM.
For `COc1ccc([C@@H](O)c2cc(-c3ncnc4cc(N5CCOCC5)ccc34)c(F)cc2Cl)nn1`, the viability, T/C was 89.1% and 113% and 89.2% (compound 0.0316 µM); 75.3% and 88.3% and 77.7% (compound 0.1 µM); 87.5% and 97.3% and 96% (compound 0.316 µM); 73.4% and 71.1% and 64.4% (compound 1 µM); 46.6% and 64.8% and 57.1% (compound 3.16 µM); 31.4% and 30% and 28.4% (compound 10 µM). Under “curve of compound”, the IC50 was 2.72 µM and 4.6 µM and 3.81 µM.
For the molecule `O=C(c1cc(Cc2n[nH]c(=O)c3ccccc23)ccc1F)N1CCN(C(=O)C2CC2)CC1`, the viability, T/C by setting is: (compound 0.0316 µM) 94.9% and 101% and 98%; (compound 0.1 µM) 100% and 97.5% and 90.3%; (compound 0.316 µM) 84.3% and 99.6% and 85.8%; (compound 1 µM) 89.3% and 98.4% and 81.9%; (compound 3.16 µM) 85.7% and 102% and 88.1%; (compound 10 µM) 80% and 77.6% and 68.8%. For the same molecule, under “curve of compound”, the concentration for half-maximal inhibition (IC50) is greater than 10 µM.
Turning to `CC(C)n1c(=O)n(C)c2cnc3cc(F)c(-c4ccc(OCCCN5CCCCC5)nc4)cc3c21` + Cc1[nH]c2ccc(F)cc2c1-c1nc2c3cccnc3c3ncccc3c2[nH]1, the IC50 (curve of first compound, second compound 0.0316 µM) is greater than 10 µM; the concentration for half-maximal inhibition (IC50) (curve of first compound, second compound 0.1 µM) is greater than 10 µM; the IC50 (curve of first compound, second compound 0.316 µM) is greater than 10 µM; the concentration for half-maximal inhibition (IC50) (curve of first compound, second compound 1 µM) is greater than 10 µM; the half-maximal inhibitory concentration (IC50) (curve of first compound, second compound 3.16 µM) was greater than 10 µM; the IC50 (curve of first compound, second compound 10 µM) is greater than 10 µM. Besides, the viability, T/C is 106% (second compound 0.0316 µM, first compound 0.0316 µM); 78.3% (second compound 0.0316 µM, first compound 0.1 µM); 89.2% (second compound 0.0316 µM, first compound 0.316 µM); 87.8% (second compound 0.0316 µM, first compound 1 µM); 85.1% (second compound 0.0316 µM, first compound 3.16 µM); 71.2% (second compound 0.0316 µM, first compound 10 µM). Besides, the viability, T/C by setting is: (second compound 0.1 µM, first compound 0.0316 µM) 82.6%; (second compound 0.1 µM, first compound 0.1 µM) 103%; (second compound 0.1 µM, first compound 0.316 µM) 77.7%; (second compound 0.1 µM, first compound 1 µM) 95.6%; (second compound 0.1 µM, first compound 3.16 µM) 93.8%; (second compound 0.1 µM, first compound 10 µM) 99.2%. Further, the viability, T/C (second compound 0.316 µM, first compound 0.0316 µM) is 92%; the viability, T/C (second compound 0.316 µM, first compound 0.1 µM) is 82.8%; the viability, T/C (second compound 0.316 µM, first compound 0.316 µM) is 91.1%; the viability, T/C (second compound 0.316 µM, first compound 1 µM) is 88.7%; the viability, T/C (second compound 0.316 µM, first compound 3.16 µM) was 80.4%; the viability, T/C (second compound 0.316 µM, first compound 10 µM) was 85.2%. Also, the viability, T/C was 80.8% (second compound 1 µM, first compound 0.0316 µM); 89.6% (second compound 1 µM, first compound 0.1 µM); 81.7% (second compound 1 µM, first compound 0.316 µM); 84.3% (second compound 1 µM, first compound 1 µM); 99.3% (second compound 1 µM, first compound 3.16 µM); 77.2% (second compound 1 µM, first compound 10 µM). Also, the viability, T/C (second compound 3.16 µM, first compound 0.0316 µM) is 89.2%; the viability, T/C (second compound 3.16 µM, first compound 0.1 µM) was 82.4%; the viability, T/C (second compound 3.16 µM, first compound 0.316 µM) is 84.4%; the viability, T/C (second compound 3.16 µM, first compound 1 µM) is 85%; the viability, T/C (second compound 3.16 µM, first compound 3.16 µM) was 76.8%; the viability, T/C (second compound 3.16 µM, first compound 10 µM) was 64%. For the same molecule, the viability, T/C is 79.1% (second compound 10 µM, first compound 0.0316 µM); 78.8% (second compound 10 µM, first compound 0.1 µM); 87.4% (second compound 10 µM, first compound 0.316 µM); 76.5% (second compound 10 µM, first compound 1 µM); 86% (second compound 10 µM, first compound 3.16 µM); 64.6% (second compound 10 µM, first compound 10 µM).

By viability, T/C is commonly meant the result in the treated group divided by that in the control group, in per cent. What is called IC50 is the concentration that gives 50% inhibition.
